Data on five compounds can be found in patent publication US20180327375A1, “AROMATIC SURFACTANTS” (REGENTS OF THE UNIVERSITY OF MINNESOTA, priority 2015, published 2018).

Values joined by “and” are separate entries in the source; they are usually repeats but may differ in a detail not shown here. Identical values can stand only once. Counter-ions that a name gives are not always drawn. Like-named read-outs stand apart in the source and are kept apart here.

What all share (format): physicochemical
The nature of data set [1]: Particle size distribution of micelles via dynamic light scattering (DLS). The procedure: Dynamic Light Scattering (DLS) has been used in the past for studying surfactant aggregates (N. Vlachy, M. Drechsler, J.-M. Verbavatz, D. Touraud, W. Kunz, Role of surfactant headgroup on the counterion specificity in the micelle-to-vesicle transition through salt addition. J. Colloid Interface Sci. 319, 542-548 (2008)). Micelle size distribution studies of the OFS-12 surfactant was performed using the Microtrac NANO-flex analyzer which employs a 180° scattering angle DLS technique. Two different surfactant concentration samples were prepared (5.0 and 10×CMC, 0.35 and 0.7 wt %) by dissolving the required amount of surfactant in deionized water and filtering the solution after surfactant dissolution using a 0.2μ micropore filter to remove any dust particles. Prior to each sample run, a blank solution (DI water) was used to set the baseline to zero. FIGS. 26A and 26B show the average particle size distribution plots for the surfactant solutions. The average values were computed based on five individual trials each lasting 120 sec.

Data set [2] in a line: Krafft point by conductivity vs temperature. The following applies: 1.0 wt % surfactant in water (2.0 wt % for OFS-12-1/O). As to the method: Krafft point or Krafft temperature is the minimum temperature at which surfactants form micelles. Below Krafft point, the surfactants precipitate out of solution and remain in the crystalline phase. FIG. 30 depicts the apparatus utilized for the measurement of Krafft points. A 1.0 wt % solution of surfactant in deionized water was prepared for all surfactants except in the case of OFS-12-1/O where a 2.0 wt % solution was used instead, since its CMC is roughly about 1.1 wt %. 50 mL of the prepared solution was poured into a beaker surrounded by a freezing mixture of ice and salt (sodium chloride) mounted on a laboratory hot plate with magnetic stirring. The Krafft point (TK) of the surfactants was measured by estimating the degree of counterion dissociation using a conductivity meter (COND 6+, Oakton/Eutech Instruments) immersed in the surfactant solution capable of measuring both, conductivity and temperature. The magnetic stirring speed was set to 650 rpm and the solution was first allowed to cool to 0° C. Upon attainment of this temperature, the solution was slowly heated and the conductivity was measured in every 0.5° C. increments until it reached a steady value. […] Visually, this corresponded to the surfactant solution transitioning from a turbid system due to the precipitated surfactant crystals below the Krafft point to a clear solution indicating the dissolution of surfactants and the formation of micelles in water.
For the OFS-Cocinic, n=8-18 surfactant, the conductivity vs temperature plot was erratic, which is attributed to the presence of 6 different surfactants in the mixture. The solution changed from turbid to clear at approximately 18.5° C. which was, therefore, reported as the Krafft point. Methyl Ester Sulfonate (MES), Sodium Lauryl Ether Sulfate (SLES), OFS-7 and all OFS-n-1/O surfactant solutions remained clear even at 0° C.; the Krafft point was thus reported as <0° C.

Data set [3] is described as follows: Hardness tolerance / hard water stability (surface tension and turbidity vs CaCl2 concentration). The following applies: for Turbid conc.: onset of turbidity. The text has this: Precipitation of the anionic surfactant from hard water is an undesired process in detergency. The tendency of the anionic surfactants to precipitate is quantified by analyzing hardness tolerance. Hardness tolerance is the minimum concentration of counterion, such as, Ca^2+ and Mg^2+, precipitating with surfactant, resulting in deactivation of the surfactant performance (C. H. Rodriguez, L. H. Lowery, J. F. Scamehorn, J. H. Harwell, Kinetics of precipitation of surfactants. I. Anionic surfactants with calcium and with cationic surfactants. Journal of Surfactants and Detergents 4, 1-14 (2001); C. H. Rodriguez, C. Chintanasathien, J. F. Scamehorn, C. Saiwan, S. Chavadej, Precipitation in solutions containing mixtures of synthetic anionic surfactant and soap. I. Effect of sodium octanoate on hardness tolerance of sodium dodecyl sulfate. Journal of Surfactants and Detergents 1, 321-328 (1998); and J. F. Scamehorn, “Precipitation of mixtures of anionic surfactants” in mixed Surfactant systems ACS Symposium Series (American Chemical Society: Washington D.C., 1992), pp. 392-401). Calcium chloride was used as a divalent counterion, and surface tension of the surfactant solution was measured with increasing concentration of CaCl2 from 1 mM to 450 mM. The value of calcium concentration above which the surface tension of the surfactant solution increased was recorded as the tolerance value of the surfactant towards calcium as indicated by the dashed red line in FIGS. 46A to 49B.
All experiments were carried out at a concentration equal to twice CMC of each surfactant, and the point of transition from a clear solution to a turbid one was also monitored. FIGS. 50A to 50E illustrate this effect for a linear alkylbenzene sulfonate (LAS) solution. Below the turbid point, the surfactant solution was clear as shown by FIGS. 50B and 50C which changed to a cloudy solution at calcium concentrations equal to and greater than the turbid point (FIG. 50D and FIG. 50E). The point of micelle stability was marked by an increase in the surface tension of the surfactant solution with an increase in calcium concentration. FIG. 50C corresponds to the micelle stability concentration and FIG. 50D corresponds to the turbid concentration. Micelle stability is defined as the calcium concentration at the increasing point of surface tension, and turbid concentration marks the onset of turbidity in the surfactant solution The solution transitions from clear to turbid as shown in FIGS. 50B to 50E

As for `CCCCCCCCCCCCc1ccc(S(=O)(=O)[O-])o1.[Na+]` [OFS-12, Sodium 5-Dodecylfuran-2-Sulfonate], the “Average micelle size (number distribution)” value in data set [1] (surfactant concentration 5.0×CMC in deionized water) is reported as 7.41 nm. For the same compound, in data set [1] (surfactant concentration 10.0×CMC in deionized water), the “Average micelle size (number distribution)” value was determined as 6.29 nm. In data set [2], the “Krafft Point” value was 30 °C and 30.0 ± 1.0 °C. For the same compound, in data set [3], the “Micelle Stability” value was > 50,000 ppm Ca^2+ and the Micelle stability conc. is listed as >50,000 ppm of CaCl2. The Turbid conc. in data set [3] (surfactant at twice CMC) is given as 10,000 ppm of CaCl2.

As for `CCCCCCCc1ccc(S(=O)(=O)[O-])o1.[Na+]` [OFS-7, Sodium 5-Heptylfuran-2-Sulfonate], in data set [2], the “Krafft Point” value is below 0 °C. In data set [3], the “Micelle Stability” value was 120 ppm Ca^2+ and the Micelle stability conc. was 110 ppm of CaCl2. The Turbid conc. in data set [3] (surfactant at twice CMC) was 230 ppm of CaCl2.

With `CCCCCCCCCCCCCCc1ccc(S(=O)(=O)[O-])o1.[Na+]` [OFS-14, Sodium 5-Tetradecylfuran-2-Sulfonate], the “Krafft Point” value in data set [2] is 41.5 °C and 41.5 ± 0.9 °C. Moreover, in data set [3], the “Micelle Stability” value is > 50,000 ppm Ca^2+ and the Micelle stability conc. is reported as >50,000 ppm of CaCl2. Also, the Turbid conc. in data set [3] (surfactant at twice CMC) was 2,000 ppm of CaCl2.

In the case of “sodium lauryl ether sulfate [SLES, reference compound]”, the “Krafft Point” value in data set [2] was below 0 °C. In data set [3], the “Micelle Stability” value is reported as > 50,000 ppm Ca^2+ and the Micelle stability conc. is >50,000 ppm of CaCl2. The Turbid conc. in data set [3] (surfactant at twice CMC) is on record as >50,000 ppm of CaCl2.

`CCCCCCCCCCCCOS(=O)(=O)O` [SLS, sodium dodecyl sulfate, reference compound]: the “Krafft Point” value in data set [2] (sulfate) was 15 °C and 15.0 ± 1.2 °C. Further, in data set [3] (surfactant at twice CMC), the Micelle stability conc. is 33 ppm of CaCl2 and the Turbid conc. was 33 ppm of CaCl2. Further, in data set [3] (surfactant at twice CMC, calcium concentration where surface tension starts to increase), the “Micelle Stability” value is 33 ppm Ca^2+.
